{"source": "patent US8192962B2", "about": "“Processes for detecting toxic substances” (Daikin Industries, Ltd., priority 2001, dated 2012)", "tested_on": "Unknown protein yeast genes", "test": "DNA chip mRNA expression in yeast, unknown protein yeast genes (Table 1)", "format": "cell-based, Saccharomyces cerevisiae S288C", "description": "Yeast (Saccharomyces cerevisiae S288C (α SUC2mal mel gap2 CUP1)) were incubated at 25° C. on YPD medium (yeast extract 1%, polypepton 2%, glucose 2%). One of toxic chemical substances was added to the cells at logarithmic growth phase, and the cells were further incubated for two hours. Cells were cultured without any chemical substance in the same condition, and were used as control. Concentrations of the chemical substances were defined to inhibit the growth of the yeast but not lead to death.\nAfter completion of the incubation, the culture was centrifuged to collect the cells. To the cells, sodium acetate buffer (50 mM sodium acetate, 10 mM EDTA, 1% SDS) was added, and the mixture was shaken at 65° C. for five minutes, followed by returning to room temperature, and obtaining the supernatant, of which the procedures were repeated two times. To the supernatant, ½ amount of a solution of phenol/chloroform was added, and the mixture was centrifuged to give a supernatant, which was added with an equal amount of chloroform, and the mixture was centrifuged to give a supernatant. To the supernatant, an equal amount of isopropanol containing 0.3 M sodium acetate was added, and the mixture was allowed to stand at room temperature for 30 minutes, after which the mixture was centrifuged to give a sediment of the whole RNAs. Seventy % ethanol was added to the sediment, and the mixture was again centrifuged to give a sediment, which was then dried and dissolved in water. mRNA was isolated from the whole RNAs as followings. In view of the fact that a poly A chain is attached to the 3′ terminus of mRNA, a polynucleotide having a poly T structure which was immobilized on the surface of latex beads was used to trap the mRNA, and then the mRNA was washed and eluted with spine column (Oligotex-dT30<Super>mRNA Purification Kit, Takara). Reverse transcription of the mRNA was conducted with a reverse transcriptase (Super Script II Reverse Transcriptase; catalogue No. 18064-014, GibcoBRL) using fluorescence-labeled nucleotides to give cDNAs that were introduced with Cy3-dUTP or Cy5-dUTP during the reverse transcription.\nThe labeled cDNAs were dissolved in TE buffer (10mM Tris-HCl/1 mM EDTA, pH8.0), and the solution was dropped on the DNA chip containing the whole genes of yeast (DNA Chip Research Inc. Japan) so that the cDNAs were hybridized on the DNA chip at 65° C. for over 12 hours. The fluoresces intensity of the DNA chip was read with a scanner, and the ratio relative to the fluorescence intensity resulting from the absence of chemical substance was estimated as the following, which is shown in Tables 1 to 9: […]"}
{"compound": "[Cl][Cd][Cl]", "note": "[(2), CdCl2]", "values": [{"measurement": "The level of expressed mRNA in the presence of chemical substance/The level of expressed mRNA in the absence of chemical substance", "setting": "yeast gene YKL195W, incubated two hours with chemical substance", "result": 0.5}, {"measurement": "The level of expressed mRNA in the presence of chemical substance/The level of expressed mRNA in the absence of chemical substance", "setting": "yeast gene YKR091W, incubated two hours with chemical substance", "result": 2.3}, {"measurement": "The level of expressed mRNA in the presence of chemical substance/The level of expressed mRNA in the absence of chemical substance", "setting": "yeast gene YLR054C, incubated two hours with chemical substance", "result": 1.5}, {"measurement": "The level of expressed mRNA in the presence of chemical substance/The level of expressed mRNA in the absence of chemical substance", "setting": "yeast gene YLR149C, incubated two hours with chemical substance", "result": 1.9}, {"measurement": "The level of expressed mRNA in the presence of chemical substance/The level of expressed mRNA in the absence of chemical substance", "setting": "yeast gene YLR152C, incubated two hours with chemical substance", "result": 1.3}, {"measurement": "The level of expressed mRNA in the presence of chemical substance/The level of expressed mRNA in the absence of chemical substance", "setting": "yeast gene YLR194C, incubated two hours with chemical substance", "result": 2.2}, {"measurement": "The level of expressed mRNA in the presence of chemical substance/The level of expressed mRNA in the absence of chemical substance", "setting": "yeast gene YLR324W, incubated two hours with chemical substance", "result": 1.2}, {"measurement": "The level of expressed mRNA in the presence of chemical substance/The level of expressed mRNA in the absence of chemical substance", "setting": "yeast gene YLR350W, incubated two hours with chemical substance", "result": 1.9}, {"measurement": "The level of expressed mRNA in the presence of chemical substance/The level of expressed mRNA in the absence of chemical substance", "setting": "yeast gene YLR387C, incubated two hours with chemical substance", "result": 1.6}, {"measurement": "The level of expressed mRNA in the presence of chemical substance/The level of expressed mRNA in the absence of chemical substance", "setting": "yeast gene YLR460C", "result": 2.1}, {"measurement": "The level of expressed mRNA in the presence of chemical substance/The level of expressed mRNA in the absence of chemical substance", "setting": "yeast gene YML117W, incubated two hours with chemical substance", "result": 2.2}, {"measurement": "The level of expressed mRNA in the presence of chemical substance/The level of expressed mRNA in the absence of chemical substance", "setting": "yeast gene YMR009W, incubated two hours with chemical substance", "result": 1.9}, {"measurement": "The level of expressed mRNA in the presence of chemical substance/The level of expressed mRNA in the absence of chemical substance", "setting": "yeast gene YMR067C, incubated two hours with chemical substance", "result": 0.9}, {"measurement": "The level of expressed mRNA in the presence of chemical substance/The level of expressed mRNA in the absence of chemical substance", "setting": "yeast gene YMR090W", "result": 9.5}, {"measurement": "The level of expressed mRNA in the presence of chemical substance/The level of expressed mRNA in the absence of chemical substance", "setting": "yeast gene YMR095C, incubated two hours with chemical substance", "result": 2.0}, {"measurement": "The level of expressed mRNA in the presence of chemical substance/The level of expressed mRNA in the absence of chemical substance", "setting": "yeast gene YMR097C, incubated two hours with chemical substance", "result": 1.0}, {"measurement": "The level of expressed mRNA in the presence of chemical substance/The level of expressed mRNA in the absence of chemical substance", "setting": "yeast gene YMR102C, incubated two hours with chemical substance", "result": 2.9}, {"measurement": "The level of expressed mRNA in the presence of chemical substance/The level of expressed mRNA in the absence of chemical substance", "setting": "yeast gene YMR107W, incubated two hours with chemical substance", "result": 3.9}, {"measurement": "The level of expressed mRNA in the presence of chemical substance/The level of expressed mRNA in the absence of chemical substance", "setting": "yeast gene YMR180C, incubated two hours with chemical substance", "result": 0.9}, {"measurement": "The level of expressed mRNA in the presence of chemical substance/The level of expressed mRNA in the absence of chemical substance", "setting": "yeast gene YMR184W, incubated two hours with chemical substance", "result": 5.4}, {"measurement": "The level of expressed mRNA in the presence of chemical substance/The level of expressed mRNA in the absence of chemical substance", "setting": "yeast gene YMR191W, incubated two hours with chemical substance", "result": 2.4}, {"measurement": "The level of expressed mRNA in the presence of chemical substance/The level of expressed mRNA in the absence of chemical substance", "setting": "yeast gene YMR295C, incubated two hours with chemical substance", "result": 1.0}, {"measurement": "The level of expressed mRNA in the presence of chemical substance/The level of expressed mRNA in the absence of chemical substance", "setting": "yeast gene YMR316W, incubated two hours with chemical substance", "result": 2.9}, {"measurement": "The level of expressed mRNA in the presence of chemical substance/The level of expressed mRNA in the absence of chemical substance", "setting": "yeast gene YNL044W, incubated two hours with chemical substance", "result": 0.9}, {"measurement": "The level of expressed mRNA in the presence of chemical substance/The level of expressed mRNA in the absence of chemical substance", "setting": "yeast gene YNL074C, incubated two hours with chemical substance", "result": 1.3}, {"measurement": "The level of expressed mRNA in the presence of chemical substance/The level of expressed mRNA in the absence of chemical substance", "setting": "yeast gene YNL092W, incubated two hours with chemical substance", "result": 1.4}, {"measurement": "The level of expressed mRNA in the presence of chemical substance/The level of expressed mRNA in the absence of chemical substance", "setting": "yeast gene YNL115C, incubated two hours with chemical substance", "result": 1.8}, {"measurement": "The level of expressed mRNA in the presence of chemical substance/The level of expressed mRNA in the absence of chemical substance", "setting": "yeast gene YNL156C, incubated two hours with chemical substance", "result": 1.2}, {"measurement": "The level of expressed mRNA in the presence of chemical substance/The level of expressed mRNA in the absence of chemical substance", "setting": "yeast gene YNL234W, incubated two hours with chemical substance", "result": 1.1}, {"measurement": "The level of expressed mRNA in the presence of chemical substance/The level of expressed mRNA in the absence of chemical substance", "setting": "yeast gene YNL281W, incubated two hours with chemical substance", "result": 1.3}, {"measurement": "The level of expressed mRNA in the presence of chemical substance/The level of expressed mRNA in the absence of chemical substance", "setting": "yeast gene YNL305C, incubated two hours with chemical substance", "result": 2.2}, {"measurement": "The level of expressed mRNA in the presence of chemical substance/The level of expressed mRNA in the absence of chemical substance", "setting": "yeast gene YNR068C, incubated two hours with chemical substance", "result": 1.5}, {"measurement": "The level of expressed mRNA in the presence of chemical substance/The level of expressed mRNA in the absence of chemical substance", "setting": "yeast gene YOL032W, incubated two hours with chemical substance", "result": 0.8}, {"measurement": "The level of expressed mRNA in the presence of chemical substance/The level of expressed mRNA in the absence of chemical substance", "setting": "yeast gene YOL036W, incubated two hours with chemical substance", "result": 0.9}, {"measurement": "The level of expressed mRNA in the presence of chemical substance/The level of expressed mRNA in the absence of chemical substance", "setting": "yeast gene YOL047C, incubated two hours with chemical substance", "result": 1.1}, {"measurement": "The level of expressed mRNA in the presence of chemical substance/The level of expressed mRNA in the absence of chemical substance", "setting": "yeast gene YOL071W, incubated two hours with chemical substance", "result": 2.0}, {"measurement": "The level of expressed mRNA in the presence of chemical substance/The level of expressed mRNA in the absence of chemical substance", "setting": "yeast gene YOL082W, incubated two hours with chemical substance", "result": 1.6}, {"measurement": "The level of expressed mRNA in the presence of chemical substance/The level of expressed mRNA in the absence of chemical substance", "setting": "yeast gene YOL083W, incubated two hours with chemical substance", "result": 2.3}, {"measurement": "The level of expressed mRNA in the presence of chemical substance/The level of expressed mRNA in the absence of chemical substance", "setting": "yeast gene YOL117W, incubated two hours with chemical substance", "result": 1.1}, {"measurement": "The level of expressed mRNA in the presence of chemical substance/The level of expressed mRNA in the absence of chemical substance", "setting": "yeast gene YOL131W, incubated two hours with chemical substance", "result": 1.5}, {"measurement": "The level of expressed mRNA in the presence of chemical substance/The level of expressed mRNA in the absence of chemical substance", "setting": "yeast gene YOL150C", "result": 3.7}, {"measurement": "The level of expressed mRNA in the presence of chemical substance/The level of expressed mRNA in the absence of chemical substance", "setting": "yeast gene YOL162W, incubated two hours with chemical substance", "result": 6.9}, {"measurement": "The level of expressed mRNA in the presence of chemical substance/The level of expressed mRNA in the absence of chemical substance", "setting": "yeast gene YOR019W, incubated two hours with chemical substance", "result": 1.2}, {"measurement": "The level of expressed mRNA in the presence of chemical substance/The level of expressed mRNA in the absence of chemical substance", "setting": "yeast gene YOR197W, incubated two hours with chemical substance", "result": 1.0}, {"measurement": "The level of expressed mRNA in the presence of chemical substance/The level of expressed mRNA in the absence of chemical substance", "setting": "yeast gene YPL087W, incubated two hours with chemical substance", "result": 5.1}, {"measurement": "The level of expressed mRNA in the presence of chemical substance/The level of expressed mRNA in the absence of chemical substance", "setting": "yeast gene YPL196W, incubated two hours with chemical substance", "result": 1.6}, {"measurement": "The level of expressed mRNA in the presence of chemical substance/The level of expressed mRNA in the absence of chemical substance", "setting": "yeast gene YPL206C, incubated two hours with chemical substance", "result": 2.9}, {"measurement": "The level of expressed mRNA in the presence of chemical substance/The level of expressed mRNA in the absence of chemical substance", "setting": "yeast gene YPL222W, incubated two hours with chemical substance", "result": 3.5}, {"measurement": "The level of expressed mRNA in the presence of chemical substance/The level of expressed mRNA in the absence of chemical substance", "setting": "yeast gene YPR023C, incubated two hours with chemical substance", "result": 1.4}, {"measurement": "The level of expressed mRNA in the presence of chemical substance/The level of expressed mRNA in the absence of chemical substance", "setting": "yeast gene YPR151C, incubated two hours with chemical substance", "result": 2.0}]}
